Assay results as given in patent US20230257383A1, “COMPOUND SERVING AS BTK INHIBITOR, PREPARATION METHOD THEREFOR, AND USE THEREOF” (CHENGDU HYPERWAY PHARMACEUTICALS CO., LTD., priority 2020, published 2023).
Read-outs that look alike come from different tables or passages of the source.

Assays:
[1] = Blood-brain barrier permeability test, oral, SD rats; type: in vivo; conditions: rat, oral 10 mg/kg single dose; for concentration at 1 h / Kp at 1 h: time point 1 h; for concentration at 2 h / Kp at 2 h: time point 2 h; for concentration at 4 h / Kp at 4 h: time point 4 h
Description: Test Example 6: Blood-Brain Barrier Permeability Test
Each test compound was administered orally at a single dose of 10 mg/kg to SD rats for pharmacokinetic study. Each group included 9 rats. The test compound was dissolved in 5% DMSO+10% solutol+85% saline, vortexed for 1-2 min, and ultrasonicated for 5-10 min to prepare into a colorless, transparent and clear administration solution. Animals were fasted overnight before administration. 1 h, 2 h, and 4 h after administration, three SD rats were selected from each group to take about 0.2-0.3 mL of blood through their orbit. The blood sample was placed on ice once collected, and centrifuged to separate the plasma within 15 min (centrifugation conditions: 8000 rpm, 1 min, room temperature). The collected plasma was stored at −20° C. before analysis. Immediately after blood collection, the cerebrospinal fluid and brain tissue were collected. The cerebrospinal fluid was draw out by dural puncture with a micro-sampler syringe under direct vision. Namely, about 100 μl of cerebrospinal fluid was collected with a 100 μl micro sample syringe from the rat that was anesthetized by chloral hydrate, with the head-fixed, the back hair-cut off, a transverse incision (2 cm) made at the line connecting the roots of the two ears, and the muscle layer of the neck and skull base bluntly scraped to expose the foramen magnum. The cerebrospinal fluid was stored at −20° C. before analysis. The rat then was sacrificed immediately, with its head cut off. The dissected brain tissue, with the surface capillaries peeled off, was weighed, added with 3 times the amount of cold saline, homogenized by a homogenizer for 1 min, and stored at −20° C. before analysis. 20 μL of plasma sample and brain homogenate sample was respectively added into 200 μL of working internal standard solution (the same volume of vehicle was added to the blank instead of internal standard), vortexed for 1 min, and centrifuged at 13500 rpm for 10 min. 100 μL of the supernatant was taken and analyzed by LC-MS/MS. 20 μL of the cerebrospinal fluid was added into 60 μL of working internal standard solution (the same volume of vehicle, instead of internal standard, was added to the blank), vortexed for 1 min, and centrifuged at 13500 rpm for 10 min. 50 μL of the supernatant was taken and analyzed by LC-MS/MS.

BT474 cell proliferation = test: In vitro cell proliferation inhibitory activity test (CTG), BT474; type: cell-based; conditions: Homo sapiens, BT-474, BT474 cell proliferation
Description: Test Example 4: In Vitro Cell Proliferation Inhibitory Activity Test
Cells were cultured in 1640 medium, added with 10% inactivated FBS and 1% double antibiotics, and cultured at 37° C. and 5% CO2.
(1) Cells were routinely cultured until the cell density was 80%-90%, and the cells were harvested when their number reached the requirement.
(2) Cells were resuspended with corresponding culture medium, counted, and prepared into cell suspension at appropriate density.
(3) The cell suspension was added to a 96-well plate, 100 μL per well.
(4) Cells were cultured overnight in a 37° C., 5% CO2 incubator.
(1) The compounds to be tested were diluted with DMSO to make a stock solution with a final concentration of 20 mM for later use.
(2) The stock solution was diluted 10 times from 20 mM to 2 mM with DMSO, and then diluted 3 times from 2 mM to 9 concentrations.
(3) The blank control wells were cells plus 0.5% DMSO, as high-reading control wells.
(4) Wells with no cells and only medium were used as low-reading control wells.
4: Cell treatment with compound
(1) 24 h after the cells were plated, the compounds acted alone, and 99 μL of growth medium was added to each well, followed by 1 μL of the compound prepared in step 3. The plate was shaken gently to mix uniformly, and then placed in a 37° C., 5% CO2 incubator.
(2) The cell plate was placed in an incubator for 72 h.
5: Detection by CTG method
(1) The cell plate to be tested was placed at room temperature for 30 min, and 100 μL of medium was discarded from each well.
(2) 100 μL of CTG reagent (CelltiterGlo kit) was added to each well, placed on a fast shaker for 2 min, and stood at room temperature in the dark for 30 min.
(3) The chemiluminescent signal value was read with the Envision instrument.
IC50 was calculated by using GraphPad Prism 8 software. The IC50 (half inhibitory concentration) of the compound was derived using the following nonlinear fitting formula, and the results are shown in the following table:
Y=Bottom+(Top−Bottom)/(1+10^((Log IC50−X)×HillSlope))
X: log value of compound concentration, Y: inhibition rate (% inhibition)
Inhibition rate (% inhibition)=(reading of high-reading control well-reading of compound well)/(reading of high-reading control well-reading of low-reading control well)×100

HER2 kinase = HER2 kinase (Homo sapiens, UniProt P04626); test: HER2 kinase activity test (HTRF); type: biochemical
HER2 kinase, sequence (P04626 23-1255): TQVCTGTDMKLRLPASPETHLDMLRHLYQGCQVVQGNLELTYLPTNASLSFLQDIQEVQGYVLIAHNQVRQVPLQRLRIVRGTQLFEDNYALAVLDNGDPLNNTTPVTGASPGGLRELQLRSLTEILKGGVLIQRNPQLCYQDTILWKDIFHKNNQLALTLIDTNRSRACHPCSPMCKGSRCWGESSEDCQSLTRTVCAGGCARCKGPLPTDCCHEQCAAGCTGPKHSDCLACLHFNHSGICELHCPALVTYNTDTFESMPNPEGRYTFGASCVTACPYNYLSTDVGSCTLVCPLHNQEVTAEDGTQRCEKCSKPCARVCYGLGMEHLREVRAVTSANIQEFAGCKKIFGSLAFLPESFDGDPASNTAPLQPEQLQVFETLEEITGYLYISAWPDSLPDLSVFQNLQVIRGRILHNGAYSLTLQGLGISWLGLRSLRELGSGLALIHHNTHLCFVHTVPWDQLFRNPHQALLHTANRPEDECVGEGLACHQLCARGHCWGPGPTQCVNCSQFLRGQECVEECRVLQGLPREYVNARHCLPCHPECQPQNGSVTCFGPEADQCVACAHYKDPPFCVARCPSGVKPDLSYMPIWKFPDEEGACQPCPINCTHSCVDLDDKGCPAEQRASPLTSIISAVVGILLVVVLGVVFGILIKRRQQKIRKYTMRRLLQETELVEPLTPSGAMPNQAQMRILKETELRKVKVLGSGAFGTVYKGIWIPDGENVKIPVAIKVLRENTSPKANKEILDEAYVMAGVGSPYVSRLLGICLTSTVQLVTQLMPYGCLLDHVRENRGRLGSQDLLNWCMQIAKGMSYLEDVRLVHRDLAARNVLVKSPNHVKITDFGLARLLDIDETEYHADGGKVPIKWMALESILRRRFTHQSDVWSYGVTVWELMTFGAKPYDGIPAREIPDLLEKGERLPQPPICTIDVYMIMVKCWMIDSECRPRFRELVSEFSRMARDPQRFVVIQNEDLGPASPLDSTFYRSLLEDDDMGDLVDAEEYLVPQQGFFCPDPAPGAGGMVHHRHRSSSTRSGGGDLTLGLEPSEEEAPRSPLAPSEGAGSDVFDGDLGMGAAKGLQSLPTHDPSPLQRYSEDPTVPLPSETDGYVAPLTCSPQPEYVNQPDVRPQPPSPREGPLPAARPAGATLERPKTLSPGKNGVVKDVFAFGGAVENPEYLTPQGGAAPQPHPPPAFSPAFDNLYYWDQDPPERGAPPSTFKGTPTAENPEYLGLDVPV
Description: Test Example 5: HER2 Kinase Activity Test
1. Her2 Kinase test steps
2) 100 nl of the diluted compound working solution was transferred into each well of a reaction plate (784075, Greiner) by an Echo 550 liquid hander. The reaction plate was sealed with a sealing film and centrifuged at 1000 g for 1 min.
3) 1 ng/μL Her2 kinase solution was prepared with 1× kinase reaction buffer.
4) 5 μL of the kinase solution prepared above was added to each well of the reaction plate. The plate was sealed with a sealing film, centrifuged at 1000 g for 1 min, and placed at room temperature for 10 min.
5) A mixture of 2× kinase substrate and ATP was prepared by using 1× kinase reaction buffer, and the 2× Her2 kinase substrate was 2 μM TK-substrate-biotin and 4 μM ATP
6) 5 μL of the mixture of 2× TK-substrate-biotin and ATP was added to the reaction plate, centrifuged at 1000 g for 30 seconds to start the reaction.
7) Her2 kinase test was performed at room temperature for 50 min of reaction.
9) 10 μL of the mixture of Sa-XL 665 and TK-antibody-Cryptate was added to each well, centrifuged at 1000 g for 30 seconds, and reacted at room temperature for 1 h.
10) The fluorescence signals at 615 nm (Cryptate) and 665 nm (XL665) were read by Envision 2104.
1) The percentage inhibition was calculated as follows: […]
Ratiopositive control: average value of Ratio 665/615 nm of all positive control wells in the plate.
Rationegative control: average value of Ratio 665/615 nm of all negative control wells in the plate.
2) Calculation of IC50 and fitting of dose-effect curve of compound:
The IC50 of the compound was derived using the following nonlinear fitting formula with GraphPad 6.0.
Y=Bottom+(Top−Bottom)/(1+10^((Log IC50−X)×HillSlope)).
X: log value of compound concentration; Y: percentage inhibition of compound

[2] = brain, read-out: Drug concentration in brain tissue
[3] = brain/plasma, read-out: Brain tissue/plasma
[4] = cerebrospinal fluid, read-out: Drug concentration in cerebrospinal fluid
[5] = cerebrospinal fluid/plasma, read-out: Cerebrospinal fluid/plasma
[6] = plasma, read-out: Plasma drug concentration

| SMILES | concentration at 1 h [1, 2] | concentration at 2 h [1, 2] | concentration at 4 h [1, 2] | Kp at 1 h [1, 3] | Kp at 2 h [1, 3] | Kp at 4 h [1, 3] | concentration at 1 h [1, 4] | concentration at 2 h [1, 4] | concentration at 4 h [1, 4] | Kp at 1 h [1, 5] | Kp at 2 h [1, 5] | Kp at 4 h [1, 5] | concentration at 1 h [1, 6] | concentration at 2 h [1, 6] | concentration at 4 h [1, 6] | IC50 (BT474 cell proliferation) | IC50 (HER2 kinase) |
| --- | --- | --- | --- | --- | --- | --- | --- | --- | --- | --- | --- | --- | --- | --- | --- | --- | --- |
| Nc1nccn2c(C3CCC(CO)OC3)nc(-c3ccc(C(F)(F)c4ccccc4)cc3)c12 (single isomer, unassigned) [Example 111-P1] | 1250 ng/g | 1070 ng/g | 787 ng/g | 0.62 | 0.67 | 0.59 | 66.2 ng/mL | 52.3 ng/mL | 41.9 ng/mL | 0.033 | 0.033 | 0.031 | 2010 ng/mL | 1580 ng/mL | 1340 ng/mL | 1550 nM |  |
| Nc1nccn2c(C34CCC(CO)(CC3)OC4)nc(-c3ccc(C(F)(F)c4ccccc4)cc3)c12 [Example 125] | 1340 ng/g | 1170 ng/g | 1060 ng/g | 0.91 | 1.03 | 0.84 | 34.1 ng/mL | 30.4 ng/mL | 29.6 ng/mL | 0.023 | 0.027 | 0.024 | 1470 ng/mL | 1130 ng/mL | 1260 ng/mL | 340 nM |  |
| Nc1nccn2c(C34CCC(CO)(CC3)OC4)nc(-c3ccc(C(F)(F)c4ccccc4F)cc3)c12 [Example 145] | 643 ng/g |  | 910 ng/g | 0.39 |  | 0.53 | 59.7 ng/mL |  | 74.3 ng/mL | 0.036 |  | 0.044 | 1650 ng/mL |  | 1710 ng/mL | 40.9 nM | 1.69 nM |
| Nc1nccn2c(C34CCC(CO)(CC3)OC4)nc(-c3ccc(C(F)(F)c4cccc(Cl)c4F)cc3)c12 [Example 152] | 288 ng/g | 378 ng/g | 232 ng/g | 0.27 | 0.39 | 0.32 | 187 ng/mL | 227 ng/mL | 181 ng/mL | 0.18 | 0.24 | 0.25 | 1060 ng/mL | 961 ng/mL | 715 ng/mL | 65.5 nM | 4.19 nM |
| Nc1nccn2c(C34CCC(CO)(CC3)OC4)nc(-c3ccc(C(F)(F)c4ccccc4Cl)cc3)c12 [Example 155] | 1520 ng/g | 1860 ng/g | 1260 ng/g | 1.21 | 1.3 | 1.19 | 292 ng/mL | 374 ng/mL | 220 ng/mL | 0.23 | 0.26 | 0.21 | 1250 ng/mL | 1430 ng/mL | 1060 ng/mL | 46.4 nM | 9.44 nM |
| Cc1cc(Nc2ncnc3ccc(NC4=NC(C)(C)CO4)cc23)ccc1Oc1ccn2ncnc2c1 [Tucatinib, reference compound] | 26.5 ng/g | 29.5 ng/g | 24.5 ng/g | 0.013 | 0.015 | 0.013 | 19.2 ng/mL | 10.4 ng/mL | 14.9 ng/mL | 0.009 | 0.005 | 0.008 | 2030 ng/mL | 1940 ng/mL | 1900 ng/mL | 30.2 nM | 3 nM |
